Source: US8338475B2, “Anti-proliferative pharmaceutical composition” (BioCis Pharma Oy, priority 2003, dated 2012)
Values joined by “and” are separate entries in the source; they are usually repeats but may differ in a detail not shown here. Identical values can stand only once.

Tests used:
HSF (skin fibroblast) = test: Proliferation assay (CellTiter 96), HSF cells; type: cell-based, human; conditions: Homo sapiens, Skin fibroblast, pH 6.5, 44 h, cis-UCA 10 mM, CPT 2 μM, 15,000 cells per 100 μl, read-out: Inhibition of proliferation (mean percentage inhibition ± SD compared with untreated control)
Description: (§1) Transformed tumour cell lines WM 266-4 and A2058 (cutaneous melanoma), HT-1080 (epithelial fibrosarcoma), HeLa (epithelial adenocarcinoma of cervix), HK293 (kidney epithelial cells) and non-transformed cell line HSF (skin fibroblast from a healthy volunteer donor) of human origin have been described earlier (Li et al. 2003). The K562 (chronic myelogenous leukemia) cells were purchased from American Type Culture Collection.
(§2) The cells were maintained in logarithmic growth phase in IMDM medium (Invitrogen, Paisley, UK) supplemented with 10% fetal calf serum and antibiotics in a humidified incubator at +37° C., 5% CO2. The adherent cells lines were harvested for experiments with 0.25% trypsin-EDTA in PBS for 5 min and then resuspended and washed in medium. After counting of viable cells, 15,000 to 75,000 cells were transferred into flat-bottom 96-well cell culture plates in a volume of 100 or 150 μl.
(§3) The proliferation activity of cultured cell lines was quantified in flat-bottom 96-well plates with a modified colorimetric assay based on a tetrazolium derivative (CellTiter 96 Aqueous One Solution Cell Proliferation Assay, Promega). The cells were cultured in the presence of camptothecin and/or cis-UCA for 20 to 92 h, then the proliferation reagent was added for 2 h, and the absorbance at 490 nm was measured in a plate reader. […]

[1] = system: WM 266-4 (cutaneous melanoma); test: Proliferation assay (CellTiter 96), WM266-4 cells; type: cell-based, human; conditions: Homo sapiens, WM 266-4, pH 6.5, 44 h, cis-UCA 10 mM, CPT 2 μM, 15,000 cells per 100 μl, read-out: Inhibition of proliferation (mean percentage inhibition ± SD compared with untreated control)
Procedure: (§4) The cells were cultured in triplicate with or without 2 μM camptothecin (CPT) or 10 mM cis-UCA in a density of 15,000 cells per […]. A, Cells taken from normal pH 7.4 cultures to test conditions at pH 6.5. B, Cells cultured in low pH 6.7 adaptation medium for 3 d, then tested at pH 6.5. C, Cells cultured and tested at pH 7.4.
as §1, §2
(§5) The proliferation activity of cultured cell lines was quantified in flat-bottom 96-well plates with a modified colorimetric assay based on a tetrazolium derivative (CellTiter 96 Aqueous One Solution Cell Proliferation Assay, Promega). The cells were cultured in the presence of camptothecin and/or cis-UCA for 20 to 92 h, then the proliferation reagent was added for 2 h, and the absorbance at 490 nm was measured in a plate reader. Blank absorption values in wells containing medium without cells were subtracted before comparison analysis.
(§6) The cell lines were tested in a 44-h culture at pH 6.5 with or without 2 μM camptothecin and 10 mM cis-UCA at 15,000 cells per 100 μl total volume. […] In order to further characterise the effective anti-proliferative concentration range of cis-UCA, proliferation was measured in a 44-h assay at pH 6.5 with cis-UCA concentration ranging from 30 μM to 30 mM.

[2] = system: A2058 (cutaneous melanoma); test: Proliferation assay (CellTiter 96), A2058 cells; type: cell-based, human; conditions: Homo sapiens, pH 6.5, 44 h, cis-UCA 10 mM, CPT 2 μM, 15,000 cells per 100 μl, read-out: Inhibition of proliferation (mean percentage inhibition ± SD compared with untreated control)
Procedure: as §4
Proliferation was measured in a 44-h assay at pH 6.5 with 30 μM to 30 mM cis-UCA and 2 μM camptothecin. Both proliferation (A) and calculated percentage inhibition data (B) are presented.
as §1, §2, §5, §6

[3] = system: HK293 (kidney epithelial cells); test: Proliferation assay (CellTiter 96), HK293 cells; type: cell-based, human; conditions: Homo sapiens, Epithelial cell, pH 6.5, 44 h, cis-UCA 10 mM, CPT 2 μM, 15,000 cells per 100 μl, read-out: Inhibition of proliferation (mean percentage inhibition ± SD compared with untreated control)
Description: as §1, §2, §3

[4] = system: HeLa (epithelial adenocarcinoma of cervix); test: Proliferation assay (CellTiter 96), HeLa cells; type: cell-based, human; conditions: Homo sapiens, pH 6.5, 44 h, cis-UCA 10 mM, CPT 2 μM, 15,000 cells per 100 μl, read-out: Inhibition of proliferation (mean percentage inhibition ± SD compared with untreated control)
Description: as §1, §2, §3

[5] = system: K562 (chronic myelogenous leukemia); test: Proliferation assay (CellTiter 96), K562 cells; type: cell-based, human; conditions: Homo sapiens, pH 6.5, 44 h, cis-UCA 10 mM, CPT 2 μM, 15,000 cells per 100 μl, read-out: Inhibition of proliferation (mean percentage inhibition ± SD compared with untreated control)
Description: as §1, §2, §3

[6] = system: HT-1080 (epithelial fibrosarcoma); test: Proliferation assay (CellTiter 96), HT-1080 cells; type: cell-based, human; conditions: Homo sapiens, pH 6.5, 44 h, cis-UCA 10 mM, CPT 2 μM, 15,000 cells per 100 μl, read-out: Inhibition of proliferation (mean percentage inhibition ± SD compared with untreated control)
Description: as §1, §2, §3

cell lines = test: Proliferation assay, statements on the cell lines as a group; type: cell-based, human; conditions: camptothecin 2 μM; 44 h; pH 6.5 or 7.4 (FIG. 1)
Procedure: The cells were cultured for 44 h with or without 2 μM camptothecin (CPT) at pH 6.5 or 7.4 conditions. After a 2-h incubation with the proliferation assay reagent, the absorbance at 490 nm was recorded. Cells were cultured in a density of 15,000 cells (K562, HT-1080, HK293) or 75,000 cells (the other cells) in a volume of 150 μl.
Three cell lines were cultured with cis-UCA and/or 1 μM camptothecin at a density of […] per well (100 μl) for 44 h in pH 6.5 medium. Blank wells with all the cis-UCA concentrations but without cells were included and their absorbance subtracted from those of the corresponding test wells.
as §1, with “The K562 (chronic myelogenous leukemia) cells were purchased from American Type Culture Collection.” left out
as §3

[7] = system: A2058 human cutaneous melanoma tumours; test: Tumour growth in SCID/SCID mice in vivo; conditions: 16-day treatment, 1 μM CPT, pH 6.5
Procedure: All injection solutions were adjusted to pH 6.5. The data points have been normalised to unity tumour size at day 0. Data from five mice in each group is included (mean, SD).
The A2058 human cutaneous melanoma cells were cultured under normal cell culture conditions prior to injection into mice. Two million A2058 cells were injected s.c. into the neck of SCID/SCID mice (Charles River Laboratories, Germany). Tumours were allowed to develop for two weeks to the size of a small pearl before the treatments. The mice were divided into four groups of six animals, each containing three males and three females. Each tumour was first injected 50 μl of one of the test solutions (A: PBS; B: 30 mM cis-UCA; C: 1 μM CPT; D: 30 mM cis-UCA+1 μM CPT) three times a week (Mon-Wed-Fri). After day 7 from the beginning of injections, the injection volume was increased to 150 μl injected into three different sides of the tumour. Tumour length and width were measured with a caliper three times a week before each injection. Tumour planar area was calculated as length×width. The tumour growth inhibition efficiency I of the treatments was calculated according to Equation 1:
[formula] where Sr represents the normalised relative size of the tumour in the control group (A) or any of the treatment groups (T), and d0 to d16 are the (eight) measuring time points during the 16-day treatment period.
(§7) After 16 days from the first injection, all the animals were sacrificed with CO2, and the tumours were collected and fixed in formalin for further studies. In groups A, C, and D, one mouse was sacrificed before the end of the experiment because of poor development of the tumour (no measurable tumour at day 0). One animal in group B was sacrificed prematurely after it had severly scratched the tumour. Data from these animals were not included in the calculation of the tumour size results. All the removed animals were female mice. Immunohistochemical data was obtained also from the removed mice except from group B. The experiments were conducted under a protocol approved by the local ethics committee.

[8] = system: Ki67 (proliferating cells) in A2058 tumours; test: Immunohistochemistry of tumours, Ki67 staining; type: in vivo, SCID/SCID mice; conditions: tumours collected after 16 days; 30 mM cis-UCA, 1 μM CPT intratumoural
Description: as §7
(§8) Paraffin sections of the tumours were stained with haematoxylin/eosin following standard procedures for an overall picture. Ki67 was stained to detect the amount of proliferating cells. The staining procedure for the Ki67 primary antibody (Dako, Klostrup, Denmark) at 1:50 dilution and secondary antibody (StreptABComplex/HRP Duet Mouse/Rabbit, Dako) at 1:100 dilution followed the instructions provided by the manufacturer. Two sections from each tumour was examined.

A2058 tumours = test: Haematoxylin/eosin staining of tumour sections (necrosis); type: in vivo, SCID/SCID mice; conditions: tumours collected after 16 days; 30 mM cis-UCA, 1 μM CPT intratumoural
Description: as §7, §8

[9] = system: human polymorphonuclear neutrophils; conditions: extracellular pH range 6.1 to 7.0; patent application US2006035973; cited from earlier work

| Compound | inhibition at 2 µM (HSF (skin fibroblast)) [%] | inhibition at 2 µM [1] [%] | inhibition at 2 µM [2] [%] | inhibition at 2 µM [3] [%] | inhibition at 2 µM [4] [%] | inhibition at 2 µM [5] [%] | inhibition at 2 µM [6] [%] | anti-proliferative effect in all cell line cultures (cell lines) | mean tumour area relative to the initial size at day 0 ([7]; intratumoural injection three times a week, 30 mM cis-UCA) | Growth suppression, female ([7]; female mice, intratumoural 30 mM cis-UCA) [%] | Growth suppression, male ([7]; male mice, intratumoural 30 mM cis-UCA) [%] | Ki67+ (number of positive tumours/total analysed) [8] | Necrosis (histological sections with haematoxylin/eosin staining) (A2058 tumours) | effect on the intracellular pH of neutrophils [9] |
| --- | --- | --- | --- | --- | --- | --- | --- | --- | --- | --- | --- | --- | --- | --- |
| CC[C@@]1(O)C(=O)OCc2c1cc1n(c2=O)Cc2cc3ccccc3nc2-1 [CPT, Camptothecin, reference compound] | 37 ± 0.4 | 81 ± 1.1 | 84 ± 3.3 | 56 ± 1 | 78 ± 1.6 | 77 ± 3.3 | 71 ± 1.7 | inhibited the proliferation in all cell line cultures and showed more efficient inhibition at pH 6.5 | about four | 90.3 | 44.7 | three out of six tumours and 3/6 | Dead cells and large necrotic areas were detected and yes |  |
| O=C(O)C=Cc1c[nH]cn1 [trans-UCA, 3-(1H-imidazol-4-yl)-2-propenoic acid, reference compound] |  |  |  |  |  |  |  |  |  |  |  |  |  | not trans-UCA affected the intracellular pH |
